From patent US20210137809A1, “COSMETIC COMPOSITION FOR WRINKLE REDUCTION OR ANTI-INFLAMMATION, CONTAINING SUBSTANCE P” (Biosolution Co., Ltd, priority 2017, published 2021)

Legend:
nitric oxide (NO) = experiment: Nitric oxide (NO)-reducing effect in LPS-treated Raw 264.7 cells (Griess reagent); assay type: cell-based, mouse; details: 100 ng/mL LPS, 24-hr culture, maximum decrease (up to), LPS only = 100%, FIG. 6
Experimental: In inflammatory environments, the nitric oxide (NO)-reducing effect of the composition including substance P was examined in Raw 264.7 cells which are mouse macrophages. […] were put in a 24-well plate at a density of 4×10^5 CFU/well, and incubated at 37° C. for 24 hours. A growth medium for Raw 264.7 cells was prepared by mixing DMEM (Welgene, Korea) with 200 mM of L-glutamine (Gibco, USA). After 24-hr culture, the medium was removed, and then 1 mL of a fresh medium was dispensed into each well. […] In this regard, the concentration of the composition or the substance P added was determined such that its final concentration became a desired concentration, taking into consideration the total volume of the medium.
After 24-hr culture, the supernatant was collected, and 100 μL thereof was added to a 96-well plate, and an equal volume of Griess reagent (Sigma, USA) was added thereto, and the plate was left at room temperature for 15 minutes. Then, absorbance at 540 nm was measured. […] The production amount of nitric oxide (NO) in the group treated with LPS only was regarded as 100%, and the amount of nitric oxide (NO) in the medium was determined.
Significant NO reduction was determined using Student's t-test by comparing the NO amount practically measured in the experimental group with that of the LPS-treated group (*p<0.05, **p<0.01).

[1] = test system: inflammatory cytokine IL-6; experiment: Inflammatory cytokine IL-6-reducing effect in LPS-treated Raw 264.7 cells; assay type: cell-based, mouse; details: 100 ng/mL LPS, 24-hr culture, maximum decrease (up to) relative to LPS-treated group, FIG. 5
Experimental: The inflammatory cytokine IL-6-reducing effect of the composition including substance P was examined in Raw 264.7 cells which are mouse macrophages. […] were put in a 24-well plate at a density of 4×10^5 CFU/well, and incubated at 37° C. for 24 hours. A growth medium for Raw 264.7 cells was prepared by mixing DMEM (Welgene, Korea) with 200 mM of L-glutamine (Gibco, USA). After 24-hr culture, the medium was removed, and then 1 mL of a fresh medium was dispensed into each well. To induce intracellular inflammation, 100 ng/mL of LPS (Sigma, USA) was treated thereto, and simultaneously, the composition including substance P or substance P dissolved in a phosphate buffer solution (PBS) was dispensed thereto such that the final volume was 2 mL/well, followed by incubation at 37° C. for 24 hours. In this regard, the concentration of the composition or the substance P added was determined such that its final concentration became a desired concentration, taking into consideration the total volume of the medium. After 24-hr culture, the supernatant was collected, and the amount of inflammatory cytokine IL-6 in the medium was measured by mouse IL-6 immunoassay (R&D systems, USA).
Significant IL-6 reduction was determined using Student's t-test by comparing the IL-6 amount practically measured in the experimental group with that of the LPS-treated group (*p<0.05, **p<0.01).

[2] = test system: collagen synthesis in Human skin fibroblasts; experiment: Collagen synthesis effect in skin fibroblasts (Procollagen Type1-Peptide EIA); assay type: cell-based; details: 24-hr culture, maximum increase (up to) relative to PBS control, FIG. 3
Experimental: (§1) The collagen synthesis effect of the composition containing substance P was examined in skin fibroblasts. Human skin fibroblasts were put in a 96-well plate at a density of 3×10^4 CFU/well, and incubated at 37° C. for 24 hours. The medium (FGM, Lonza, USA) was removed, and then 180 μL of a fresh medium was dispensed into each well, and 20 μL of the composition containing substance P or substance P dissolved in a phosphate buffer solution (PBS) was added thereto, followed by incubation at 37° C. for 24 hours. In this regard, the concentration of the composition or the substance P added was determined such that its final concentration became a desired concentration, taking into consideration the total volume of the medium. After 24-hr culture, the supernatant was collected, and the amount of collagen in the medium was measured using a Procollagen Type1-Peptide (PIP) EIA kit (TaKaRa, Japan).
The difference was statistically significant. Statistical analysis was performed using Student's t-test, and the effects of experimental groups (*p<0.05, **p<0.01) relative to the control (phosphate buffer solution-treated group) and the effects of substance P dissolved in phosphate buffer solution and the composition of the present invention (#p<0.05, ##<0.01) were compared.

collagenase (MMP-1) = experiment: Collagenase (MMP-1) inhibition effect in skin fibroblasts (Human total MMP-1 kit); assay type: cell-based; details: 24-hr culture, maximum decrease (up to) relative to PBS control, FIG. 4
Experimental: as §1, with “collagenase (MMP-1) inhibition” for “collagen synthesis”, “including” for “containing”, “collagenase (MMP-1)” for “collagen”, “Human total MMP-1” for “Procollagen Type1-Peptide (PIP) EIA”, “(R&D systems, USA).” for “(TaKaRa, Japan).”
The difference was statistically significant. Statistical analysis was performed using Student's t-test, and the MMP-1 production of each experimental group (*p<0.05, **p<0.01) relative to the control (phosphate buffer solution-treated group) and the MMP-1 productions by substance P dissolved in phosphate buffer solution and the composition of the present invention (#p<0.05, ##p<0.01) were compared.

collagenase (MMP-1) production decrease (collagenase (MMP-1)): about 20%
Substance: Arg-Pro-Lys-Pro-Gln-Gln-Phe-Phe-Gly-Leu-Met-NH2 [substance P]
decrease of amount of NO induced by LPS (nitric oxide (NO)): about 10%
decrease of amount of IL-6 induced by LPS [1]: about 20%
collagen synthesis increase [2]: about 20%
